Test results taken from PubChem BioAssay AID1919001 (Molecular Pharmacology Branch, DTP, NCI, 2023).

Test system: 699152-130-R-J1-PDC complex spheroid growth
Test: Anticancer human tumor 699152-130-R-J1-PDC patient-derived pancreatic carcinoma cell line growth inhibition [AhR]
Details: for IC50: curve of first compound; for viability, T/C: stronger effect = lower value
Outline: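 Spheroids combined tumor cells with HUVEC endothelial cells and human MSCs as stroma. AhR antagonists were paired with standard or investigational drugs, each dosed in half-log steps down from near clinical Cmax, or from 10 microM where Cmax was unknown.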

[1] = second compound 0.1 µM, first compound 0.000949 µM
[2] = second compound 0.1 µM, first compound 0.003 µM
[3] = second compound 0.1 µM, first compound 0.00949 µM
[4] = second compound 0.1 µM, first compound 0.03 µM
[5] = second compound 0.1 µM, first compound 0.0949 µM
[6] = second compound 0.1 µM, first compound 0.3 µM
[7] = second compound 0.316 µM, first compound 0.000949 µM
[8] = second compound 0.316 µM, first compound 0.003 µM
[9] = second compound 0.316 µM, first compound 0.00949 µM
[10] = second compound 0.316 µM, first compound 0.03 µM
[11] = second compound 0.316 µM, first compound 0.0949 µM
[12] = second compound 0.316 µM, first compound 0.3 µM
[13] = second compound 1 µM, first compound 0.000949 µM
[14] = second compound 1 µM, first compound 0.003 µM
[15] = second compound 1 µM, first compound 0.00949 µM
[16] = second compound 1 µM, first compound 0.03 µM
[17] = second compound 1 µM, first compound 0.0949 µM
[18] = second compound 1 µM, first compound 0.3 µM
[19] = second compound 3.16 µM, first compound 0.000949 µM
[20] = second compound 3.16 µM, first compound 0.003 µM
[21] = second compound 3.16 µM, first compound 0.00949 µM
[22] = second compound 3.16 µM, first compound 0.03 µM
[23] = second compound 3.16 µM, first compound 0.0949 µM
[24] = second compound 3.16 µM, first compound 0.3 µM
[25] = second compound 10 µM, first compound 0.000949 µM
[26] = second compound 10 µM, first compound 0.003 µM
[27] = second compound 10 µM, first compound 0.00949 µM
[28] = second compound 10 µM, first compound 0.03 µM
[29] = second compound 10 µM, first compound 0.0949 µM
[30] = second compound 10 µM, first compound 0.3 µM
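Note: compound exposure lasted 7 days after spheroids had grown for 3 days.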

CC(C)CC(NC(=O)C(Cc1ccccc1)NC(=O)c1cnccn1)B(O)O (stereo not given) + Cc1cncc(-c2nc(NCCc3c[nH]c4ccccc34)c3ncn(C(C)C)c3n2)c1
IC50 (second compound 0.1 µM): 0.015 µM | IC50 (second compound 0.316 µM): 0.0163 µM | IC50 (second compound 1 µM): 0.017 µM | IC50 (second compound 3.16 µM): 0.0157 µM | IC50 (second compound 10 µM): < 0.000949 µM | viability, T/C [1]: 107% | viability, T/C [2]: 104% | viability, T/C [3]: 82.4% | viability, T/C [4]: 1.43% | viability, T/C [5]: 2.12% | viability, T/C [6]: 0.56% | viability, T/C [7]: 99.4% | viability, T/C [8]: 112% | viability, T/C [9]: 93.8% | viability, T/C [10]: 0.83% | viability, T/C [11]: 0.54% | viability, T/C [12]: 0.39% | viability, T/C [13]: 119% | viability, T/C [14]: 111% | viability, T/C [15]: 100% | viability, T/C [16]: 0.8% | viability, T/C [17]: 0.31% | viability, T/C [18]: 0.34% | viability, T/C [19]: 80.3% | viability, T/C [20]: 92.8% | viability, T/C [21]: 91.3% | viability, T/C [22]: 0.56% | viability, T/C [23]: 0.26% | viability, T/C [24]: 0.31% | viability, T/C [25]: 10.4% | viability, T/C [26]: 12.2% | viability, T/C [27]: 5.17% | viability, T/C [28]: 0.33% | viability, T/C [29]: 0.3% | viability, T/C [30]: 0.39%

CCc1c2c(nc3ccc(O)cc13)-c1cc3c(c(=O)n1C2)COC(=O)[C@]3(O)CC + Cc1cncc(-c2nc(NCCc3c[nH]c4ccccc34)c3ncn(C(C)C)c3n2)c1
IC50 (second compound 0.1 µM): 0.0389 µM | IC50 (second compound 0.316 µM): 0.0333 µM | IC50 (second compound 1 µM): 0.0696 µM | IC50 (second compound 3.16 µM): 0.0123 µM | IC50 (second compound 10 µM): < 0.000949 µM | viability, T/C [1]: 96.7% | viability, T/C [2]: 91.2% | viability, T/C [3]: 60.3% | viability, T/C [4]: 56.5% | viability, T/C [5]: 41% | viability, T/C [6]: 29% | viability, T/C [7]: 92.4% | viability, T/C [8]: 84.3% | viability, T/C [9]: 61.3% | viability, T/C [10]: 54.4% | viability, T/C [11]: 37.6% | viability, T/C [12]: 28.7% | viability, T/C [13]: 102% | viability, T/C [14]: 94.2% | viability, T/C [15]: 70% | viability, T/C [16]: 58.8% | viability, T/C [17]: 50.9% | viability, T/C [18]: 30.2% | viability, T/C [19]: 74.8% | viability, T/C [20]: 66% | viability, T/C [21]: 49% | viability, T/C [22]: 43.3% | viability, T/C [23]: 32.2% | viability, T/C [24]: 23.2% | viability, T/C [25]: 10.7% | viability, T/C [26]: 11.6% | viability, T/C [27]: 12.5% | viability, T/C [28]: 11.7% | viability, T/C [29]: 9.62% | viability, T/C [30]: 11%

Nc1ccccc1NC(=O)c1ccc(CNC(=O)OCc2cccnc2)cc1 + Cc1cncc(-c2nc(NCCc3c[nH]c4ccccc34)c3ncn(C(C)C)c3n2)c1
IC50 (second compound 0.1 µM): 7.18 µM | IC50 (second compound 0.316 µM): 6.48 µM | IC50 (second compound 1 µM): 8.11 µM | IC50 (second compound 3.16 µM): 5.35 µM | IC50 (second compound 10 µM): < 0.0316 µM | viability, T/C (second compound 0.1 µM, first compound 0.0316 µM): 94.9% | viability, T/C (second compound 0.1 µM, first compound 0.1 µM): 96.5% | viability, T/C (second compound 0.1 µM, first compound 0.316 µM): 99.3% | viability, T/C (second compound 0.1 µM, first compound 1 µM): 107% | viability, T/C (second compound 0.1 µM, first compound 3.16 µM): 77% | viability, T/C (second compound 0.1 µM, first compound 10 µM): 39.1% | viability, T/C (second compound 0.316 µM, first compound 0.0316 µM): 110% | viability, T/C (second compound 0.316 µM, first compound 0.1 µM): 97.2% | viability, T/C (second compound 0.316 µM, first compound 0.316 µM): 105% | viability, T/C (second compound 0.316 µM, first compound 1 µM): 105% | viability, T/C (second compound 0.316 µM, first compound 3.16 µM): 72.3% | viability, T/C (second compound 0.316 µM, first compound 10 µM): 36.5% | viability, T/C (second compound 1 µM, first compound 0.0316 µM): 118% | viability, T/C (second compound 1 µM, first compound 0.1 µM): 116% | viability, T/C (second compound 1 µM, first compound 0.316 µM): 113% | viability, T/C (second compound 1 µM, first compound 1 µM): 108% | viability, T/C (second compound 1 µM, first compound 3.16 µM): 72% | viability, T/C (second compound 1 µM, first compound 10 µM): 45.1% | viability, T/C (second compound 3.16 µM, first compound 0.0316 µM): 77.8% | viability, T/C (second compound 3.16 µM, first compound 0.1 µM): 81.4% | viability, T/C (second compound 3.16 µM, first compound 0.316 µM): 70.3% | viability, T/C (second compound 3.16 µM, first compound 1 µM): 64.2% | viability, T/C (second compound 3.16 µM, first compound 3.16 µM): 68.1% | viability, T/C (second compound 3.16 µM, first compound 10 µM): 33.8% | viability, T/C (second compound 10 µM, first compound 0.0316 µM): 11.6% | viability, T/C (second compound 10 µM, first compound 0.1 µM): 7.91% | viability, T/C (second compound 10 µM, first compound 0.316 µM): 7.77% | viability, T/C (second compound 10 µM, first compound 1 µM): 9.69% | viability, T/C (second compound 10 µM, first compound 3.16 µM): 7.99% | viability, T/C (second compound 10 µM, first compound 10 µM): 3.12%
